Test results published in patent publication US7166567B2, “Fragrance compositions” (Givaudan SA, priority 2000, dated 2007).
Where two headings read alike, the source gives them in different places.

Assays:
Format in all cases: physicochemical
[1] = Loss Factor (vapour pressure x water solubility at room temperature)
From the text: Preferred components of a fragrance material for addition to the outer matrix are substances that have a Loss Factor (FL) that is lower than 10^2 Pa ppm. The term <<Loss Factor>> refers to a parameter that is related to the losses of fragrance material during drying and is defined as the product of the pure component vapour pressure (Pa) and the water solubility (ppm) at room temperature. Vapour pressures and water solubility data for commercially available fragrance components are well known and so the Loss Factor for a given fragrance component may be easily calculated. Alternatively, vapour pressure and water solubility measurements may be easily taken using techniques well known in the art. […] The water solubility of fragrances may be measured according to techniques known in the art for the measurement of sparingly water-soluble materials. A preferred technique involves the formation of a saturated solution of a fragrance component in water. A tube with a dialysed membrane is placed in the solution such that after equilibration an idealised solution is formed within the tube. The tube may be removed and the water solution therein extracted with a suitable organic solvent to remove the fragrance component. Finally the extracted fragrance component may be concentrated and measured, for example using gas chromatography.

[2] = Retention of fragrance material components after granulation by GC/MS; conditions: for Divided. Initial Retention: fragrance divided between core particles and outer matrix (Example 2.2); for Undivided. Initial Retention: whole fragrance in outer matrix (Example 2.1)
From the text: In this example, fragrance material components are divided between core particles and outer matrix. The selection is made such that fragrance components having a loss factor of FL>10^2 Pa ppm are present in core particles whereas the components having a loss factor of FL<10^2 Pa ppm are present in the outer matrix. Such a composition is then compared with a composition wherein total fragrance material is provided in an outer matrix, the core particles being fragrance material-free. […] The retention of certain fragrance material components after the granulation process was measured by GC/MS analysis.

[3] = Aged retention of fragrance components in powder detergent, GC/MS; conditions: 1 month, 37° C., 70% relative humidity; for Retention With coating: composition as Example 1 with coating in detergent base; for Retention Without coating: composition as Example 1 without coating in detergent base; for Retention free perfume: free perfume in detergent base, 0.35 wt %
Experimental: Compositions were prepared substantially as set out in Example 1 wherein one composition was provided with a coating and the other not.
Compositions were incorporated into standard, unperfumed detergent bases resulting in 130.00 g perfumed powder detergent with a perfume level of 0.35 wt % based on total powder detergent. As a reference, 0.46 g of free perfume was incorporated into 129.54 g of the same standard detergent base. Both samples and reference were filled separately into carton boxes, sealed and stored in a climate chamber at 70% relative humidity and 37° C. for 1 month. All samples were compared in terms of aged fragrance material profile measured by GC/MS analysis.

[4] = vapour pressure (Pa) x water solubility (ppm), room temperature

**Q.** For `CCCCCCCCCC=O` [Aldehyde C10], which “Loss Factor FL” value [1] is on record?
**A.** 424 Pa ppm

**Q.** And the “Divided. Initial Retention” value [2]?
**A.** 93%

**Q.** What about the “Undivided. Initial Retention” value [2] of the same molecule?
**A.** 44%

**Q.** Which “Retention With coating” value [3] does the source give for `OCCc1ccccc1` [Phenyl ethyl alcohol] here?
**A.** 72%

**Q.** What about the “Retention Without coating” value [3] of the same molecule?
**A.** 36%

**Q.** And the Retention free perfume [3]?
**A.** 25%

**Q.** Which “Loss Factor FL” value [1, 4] does the source give for `CC(=O)/C=C/C1=C(C)CCCC1(C)C` [Beta ionone] here?
**A.** 90 Pa ppm

**Q.** What about the “Divided. Initial Retention” value [2] of the same molecule?
**A.** 100%

**Q.** What about the “Undivided. Initial Retention” value [2] of the same molecule?
**A.** 75%

**Q.** Which “Loss Factor FL” value [1, 4] does the source give for `CC(C)=CCCC(C)CCO` (centres unmarked) [Citronellol] here?
**A.** 761 Pa ppm

**Q.** And the “Retention With coating” value [3]?
**A.** 71%

**Q.** And the “Retention Without coating” value [3]?
**A.** 18%

**Q.** And the Retention free perfume [3]?
**A.** 26%

**Q.** What about the “Divided. Initial Retention” value [2] of the same molecule?
**A.** 100%

**Q.** And the “Undivided. Initial Retention” value [2]?
**A.** 53%

**Q.** Which “Loss Factor FL” value [1, 4] does the source give for `CCC(C)(O)CCCC(C)C` (centres unmarked) [Tetrahydro linalool] here?
**A.** 3466 Pa ppm

**Q.** And the “Retention With coating” value [3]?
**A.** 84%

**Q.** What about the “Retention Without coating” value [3] of the same molecule?
**A.** 50%

**Q.** What about the Retention free perfume [3] of the same molecule?
**A.** 33%

**Q.** What about the “Divided. Initial Retention” value [2] of the same molecule?
**A.** 97%

**Q.** And the “Undivided. Initial Retention” value [2]?
**A.** 47%

**Q.** Which results are given for `O=C(OC1CCCCC1)c1ccccc1O` [Cyclohexyl salicylate]?
**A.** Loss Factor FL [1, 4]: 1.37 Pa ppm; Divided. Initial Retention [2]: 94%; Undivided. Initial Retention [2]: 91%

**Q.** Which “Retention With coating” value [3] does the source give for `CC(=O)OCc1ccccc1` [Benzyl acetate] here?
**A.** 50%

**Q.** And the “Retention Without coating” value [3]?
**A.** 26%

**Q.** What about the Retention free perfume [3] of the same molecule?
**A.** 0%

**Q.** Which results are given for `CCCCCCOC(=O)c1ccccc1O` [Hexyl salicylate]?
**A.** Retention With coating [3]: 94%; Retention Without coating [3]: 47%; Retention free perfume [3]: 18%

**Q.** With `O=C(OCc1ccccc1)c1ccccc1` [Benzyl benzoate] as the molecule, how does the “Divided. Initial Retention” value [2] read?
**A.** 88%

**Q.** What about the “Undivided. Initial Retention” value [2] of the same molecule?
**A.** 99%

**Q.** For `C=CC(C)(CCC=C(C)C)OC(C)=O` (centres unmarked) [Linalyl acetate], which “Retention With coating” value [3] is on record?
**A.** 80%

**Q.** What about the “Retention Without coating” value [3] of the same molecule?
**A.** 39%

**Q.** What about the Retention free perfume [3] of the same molecule?
**A.** 8%

**Q.** For `CC(=O)/C(C)=C/C1C(C)=CCCC1(C)C` (centres unmarked) [Gamma methyl ionone], which “Retention With coating” value [3] is on record?
**A.** 91%

**Q.** What about the “Retention Without coating” value [3] of the same molecule?
**A.** 51%

**Q.** And the Retention free perfume [3]?
**A.** 49%

**Q.** Which “Retention With coating” value [3] does the source give for `CC(C=O)Cc1ccc(C(C)(C)C)cc1` (centres unmarked) [Lilial] here?
**A.** 65%

**Q.** And the “Retention Without coating” value [3]?
**A.** 36%

**Q.** And the Retention free perfume [3]?
**A.** 4%

**Q.** With `CC(=O)CCC1=C(C)CCCC1(C)C` [Dihydro beta ionone] as the molecule, how does the “Loss Factor FL” value [1] read?
**A.** 84 Pa ppm

**Q.** What about the “Divided. Initial Retention” value [2] of the same molecule?
**A.** 84%

**Q.** What about the “Undivided. Initial Retention” value [2] of the same molecule?
**A.** 56%

**Q.** For `C=C(C)[C@H]1CC=C(C)CC1` [Limonene], which “Retention With coating” value [3] is on record?
**A.** 41%

**Q.** What about the “Retention Without coating” value [3] of the same molecule?
**A.** 18%

**Q.** What about the Retention free perfume [3] of the same molecule?
**A.** 0%
